Results as given in patent US4798897A, “Isoquinoline derivatives” (Asahi Kasei Kogyo Kabushiki Kaisha, priority 1987, dated 1989).

Assays:
mesenteric artery = experiment: Relaxation of mesenteric artery (KCl-contracted); conditions: Oryctolagus cuniculus; rabbit mesenteric artery contracted with 15 to 20 mM KCl; read-out: ED50 (concentration attaining 50% of complete relaxation)
Experimental: 1. Relaxation of Mesenteric Artery
A rabbit of Japanese local variety weighing about 3 kg was bled to death. Then, the abdomen of the rabbit was dissected to locate a mesenteric artery. […] Thus, shrinking and relaxation of the artery could be measured as a load on the transducer. To the organ bath, KCl was added so that the KCl concentration became 15 to 20 mM, causing the artery to shrink. Then, the compounds of the present invention were added to the organ bath to observe relaxation of the artery.
The effect of the compounds of the present invention on relaxation of mesenteric artery was examined according to the method as mentioned hereinbefore.

bronchial tubes = experiment: Inhibition of histamine contraction of bronchial tubes (relaxation of bronchial tubes); conditions: Cavia porcellus; guinea pig bronchial tube, 10 μM histamine; Table 16; read-out: ED50 (50% decrease of histamine contraction of bronchial tubes)
Experimental: 3. Inhibition of Histamine Contraction of Bronchial Tubes (Relaxation of Bronchial Tubes)
That is, a bronchial tube sample taken from a guinea pig was suspended in the 20-ml bath filled with Krebs-Henseleit nutrient solution and maintained at a temperature of 37° C. To the bath was added histamine so that the histamine concentration became 10 μM, causing the bronchial tube sample to contract. After the contraction became stable, the compounds of the present invention were added cumulatively to the bath to observe relaxation of the bronchial tube sample.
The effect of the compounds of the present invention on relaxation of bronchial tubes was examined according to the method as mentioned hereinbefore.

| Compound | EC50 (mesenteric artery) [µM] | EC50 (bronchial tubes) [µM] |
| --- | --- | --- |
| CCNC1CCN(S(=O)(=O)c2cccc3cnccc23)CC1 [Compound (53), 1-(5-isoquinolinesulfonyl)-4-ethylaminopiperidine] | 14 | 11 |
| O=S(=O)(c1cccc2c(O)nccc12)N1CCC(NCc2ccccc2)CC1 [Compound (83), 1-(1-hydroxy-5-isoquinolinesulfonyl)-4-benzylaminopiperidine] | 18 | 19 |
| NC1CCN(S(=O)(=O)c2cccc3cnccc23)CC1 [Compound (51), 1-(5-isoquinolinesulfonyl)-4-aminopiperidine] | 15 | 8 |
| CCN(C(C)CN)S(=O)(=O)c1cccc2cnccc12 (stereo not drawn) [Compound (17), N-(2-amino-1-methylethyl)-N-ethyl-5-isoquinolinesulfonamide] | 14 | 10 |
| CCCCCCN(CCN1CCCCC1)S(=O)(=O)c1cccc2cnccc12 [Compound (45), N-hexyl-N-(2-piperidinoethyl)-5-isoquinolinesulfonamide] | 23 | 17 |
| CCCCCCCCC(N)CN(CCCCCC)S(=O)(=O)c1cccc2cnccc12 (stereo not drawn) [Compound (15), N-(2-aminodecyl)-N-hexyl-5-isoquinolinesulfonamide] | 7 | 25 |
| CCCCCCN(CCCCCC)CCN(Cc1ccccc1)S(=O)(=O)c1cccc2cnccc12 [Compound (44), N-benzyl-N-(2-dihexylamimoethyl)-5-isoquinolinesulfonamide] | 21 | 29 |
| CCCCCCN(CCNCCCC)S(=O)(=O)c1cccc2cnccc12 [Compound (27), N-(2-butylaminoethyl)-N-hexyl-5-isoquinolinesulfonamide] | 13 | 13 |
| NCCN(Cc1ccccc1)S(=O)(=O)c1cccc2cnccc12 [Compound (6), N-(2-aminoethyl)-N-benzyl-5-isoquinolinesulfonamide] | 4 | 5 |
| CCN(CCCCCN1CCCCC1)S(=O)(=O)c1cccc2cnccc12 [Compound (50), N-ethyl-N-(5-piperidinopentyl)-5-isoquinolinesulfonamide] | 26 | 26 |
| CC(C)N(CCN)S(=O)(=O)c1cccc2cnccc12 [Compound (2), N-(2-aminoethyl)-N-isopropyl-5-isoquinolinesulfonamide] | 4 | 5 |
| CCCCCCN(CC(C)N)S(=O)(=O)c1cccc2cnccc12 (stereo not drawn) [Compound (11), N-(2-aminopropyl)-N-hexyl-5-isoquinolinesulfonamide] | 3 | 9 |
| CCCCCCNCCCN(CCCCCC)S(=O)(=O)c1cccc2cnccc12 [Compound (33), N-(3-hexylaminopropyl)-N-hexyl-5-isoquinolinesulfonamide] | 13 | 19 |
| CCCCCCN(CCC(C)CN)S(=O)(=O)c1cccc2cnccc12 (stereo not drawn) [Compound (23), N-(4-amino-3-methylbutyl)-N-hexyl-5-isoquinolinesulfonamide] | 18 | 18 |
| CCCCCCN(C(CCC)CCCN)S(=O)(=O)c1cccc2cnccc12 (stereo not drawn) [Compound (24), N-(4-amino-1-propylbutyl)-N-hexyl-5-isoquinolinesulfonamide] | 23 | 17 |
| CCN(CCCCC(C)CN)S(=O)(=O)c1cccc2cnccc12 (stereo not drawn) [Compound (22), N-(5-aminomethylhexyl)-N-ethyl-5-isoquinolinesulfonamide] | 21 | 20 |
| CCCCCCC(CN(CCCC)S(=O)(=O)c1cccc2cnccc12)NCCC (stereo not drawn) [Compound (38), N-(2-propylaminoocytyl)-N-butyl-5-isoquinolinesulfonamide] | 8 | 23 |
| CCCCCCNCCCCCCN(CCCCCC)S(=O)(=O)c1cccc2cnccc12 [Compound (35), N-(6-hexylaminohexyl)-N-hexyl-5-isoquinolinesulfonamide] | 19 | 25 |
| CCCCCCC(N)CN(CCCCCC)S(=O)(=O)c1cccc2cnccc12 (stereo not drawn) [Compound (13), N-(2-aminooctyl)-N-hexyl-5-isoquinolinesulfonamide] | 5 | 19 |
| CCN(CC)CCN(C)S(=O)(=O)c1cccc2cnccc12 [Compound (42), N-(2-diethylaminoethyl)-N-methyl-5-isoquinolinesulfonamide] | 15 | 25 |
| CCCCN(CCNCCc1ccccc1)S(=O)(=O)c1cccc2cnccc12 [Compound (31), N-butyl-N-(2-phenylethylaminoethyl)-5-isoquinolinesulfonamide] | 10 | 15 |
| CCCCCCN(CC(N)CC)S(=O)(=O)c1cccc2cnccc12 (stereo not drawn) [Compound (12), N-(2-aminobutyl)-N-hexyl-5-isoquinolinesulfonamide] | 4 | 12 |
| CC(C)NC1CCN(S(=O)(=O)c2cccc3cnccc23)CC1 [Compound (55), 1-(5-isoquinolinesulfonyl)-4-isopropylaminopiperidine] | 17 | 12 |
| CCCCCCNCCN(CCCCCC)S(=O)(=O)c1cccc2cnccc12 [Compound (29), N-(2-hexylaminoethyl)-N-hexyl-5-isoquinolinesulfonamide] | 9 | 10 |
| CN(CCN)S(=O)(=O)c1cccc2cnccc12 [Compound (1), N-(2-aminoethyl)-N-methyl-5-isoquinolinesulfonamide] | 5 | 8 |

The next lines start with the values.

| EC50 (mesenteric artery) [µM] | EC50 (bronchial tubes) [µM] | Compound |
| --- | --- | --- |
| 15 | 12 | NC1CCCN(S(=O)(=O)c2cccc3c(Cl)nccc23)C1 (stereo not drawn) [Compound (96), 1-(1-chloro-5-isoquinolinesulfonyl)-3-aminopiperidine] |
| 18 | 22 | CNC1CCN(S(=O)(=O)c2cccc3c(Cl)nccc23)CC1 [Compound (94), 1-(1-chloro-5-isoquinolinesulfonyl)-4-methylaminopiperidine] |
| 14 | 10 | CCCCNC1CCN(S(=O)(=O)c2cccc3cnccc23)CC1 [Compound (56), 1-(5-isoquinolinesulfonyl)-4-butylaminopiperidine] |
| 21 | 23 | CCCCCCN(C)C1CCN(S(=O)(=O)c2cccc3cnccc23)CC1 [Compound (59), 1-(5-isoquinolinesulfonyl)-4-(N-hexyl-N-methylamino)piperidine] |
| 16 | 18 | CNC1CCN(S(=O)(=O)c2cccc3c(Cl)nccc23)C1 (stereo not drawn) [Compound (102), 1-(1-chloro-5-isoquinolinesulfonyl)-3-methylaminopyrrolidine] |
| 14 | 16 | CNC1CCN(S(=O)(=O)c2cccc3c(O)nccc23)CC1 [Compound (80), 1-(1-hydroxy-5-isoquinolinesulfonyl)-4-methylaminopiperidine] |
| 7 | 13 | O=S(=O)(c1cccc2cnccc12)N1CCCC(NCCc2ccccc2)C1 (stereo not drawn) [Compound (70), 1-(5-isoquinolinesulfonyl)-3-phenethylaminopiperidine] |
| 15 | 20 | CCCCCCNC1CCN(S(=O)(=O)c2cccc3cnccc23)CC1 [Compound (57), 1-(5-isoquinolinesulfonyl)-4-hexylaminopiperidine] |
| 21 | 21 | O=S(=O)(c1cccc2c(O)nccc12)N1CCC(Nc2ccccc2)CC1 [Compound (82), 1-(1-hydroxy-5-isoquinolinesulfonyl)-4-phenylaminopiperidine] |
| 12 | 30 | NC1CCN(S(=O)(=O)c2cccc3cnccc23)C1 (stereo not drawn) [Compound (78), 1-(5-isoquinolinesulfonyl)-3-aminopyrrolidine] |
| 17 | 11 | O=S(=O)(c1cccc2c(O)nccc12)N1CCCC(NCc2ccccc2)C1 (stereo not drawn) [Compound (86), 1-(1-hydroxy-5-isoquinolinesulfonyl)-3-benzylaminopiperidine] |
| 6 | 5 | CCNC1CCCN(S(=O)(=O)c2cccc3cnccc23)C1 (stereo not drawn) [Compound (65), 1-(5-isoquinolinesulfonyl)-3-ethylaminopiperidine] |
| 12 | 9 | CCCCCCNC1CCCN(S(=O)(=O)c2cccc3c(O)nccc23)C1 (stereo not drawn) [Compound (88), 1-(1-hydroxy-5-isoquinolinesulfonyl)-3-hexylaminopiperidine] |
| 21 | 19 | CN(C)C1CCCN(S(=O)(=O)c2cccc3c(Cl)nccc23)C1 (stereo not drawn) [Compound (99), 1-(1-chloro-5-isoquinolinesulfonyl)-3-dimethylaminopiperidine] |
| 12 | 10 | O=S(=O)(c1cccc2c(O)nccc12)N1CCCC(NCCc2ccccc2)C1 (stereo not drawn) [Compound (89), 1-(1-hydroxy-5-isoquinolinesulfonyl)-3-phenethylaminopiperidine] |
| 19 | 26 | CN(C)C1CCCN(S(=O)(=O)c2cccc3cnccc23)C1 (stereo not drawn) [Compound (73), 1-(5-isoquinolinesulfonyl)-3-dimethylaminopiperidine] |
| 20 | 25 | O=S(=O)(c1cccc2cnccc12)N1CCC(Nc2ccccc2)CC1 [Compound (58), 1-(5-isoquinolinesulfonyl)-4-phenylaminopiperidine] |
